As a reminder, the IC50 is the concentration that gives 50% inhibition. Low values mean higher potency, high ones lower potency.

Holding throughout (test): cell-based
In assay [1] the target is hNav1.7 (Homo sapiens, UniProt Q15858). Format: cell-based. The note with it: IonWorks Quattro, Use; read-out: IWQ Use Nav1.7. (In general: The patch-clamp technique gives a direct electrical read-out from membranes.)
Assay [2] addresses hNav1.5 (Homo sapiens, UniProt Q14524). The note with it: for pIC50: IonWorks Quattro, Use, read-out: IWQ Use Nav1.5.
Assay [3] addresses hNav1.3 (Homo sapiens, UniProt Q9NY46). The note with it: IonWorks Quattro, Use; read-out: IWQ Use Nav1.3.

The structures appear in SMILES notation. pIC50: −log10 of the molar value. Read-outs that look alike come from different tables or passages of the source. Positions of bridges follow the written chain, without caps; N, C: chain ends. Non-standard residues stand in square brackets, D forms with d. Residues, ends and D or L forms follow the SMILES beside them. Phe(4-COOH) = N[C@@H](Cc1ccc(C(=O)O)cc1)C(=O)O; 2Pal = N[C@@H](Cc1ccccn1)C(=O)O Some results are limits rather than exact numbers.

Sequence of hNav1.7 (Q15858 whole entry, looked up): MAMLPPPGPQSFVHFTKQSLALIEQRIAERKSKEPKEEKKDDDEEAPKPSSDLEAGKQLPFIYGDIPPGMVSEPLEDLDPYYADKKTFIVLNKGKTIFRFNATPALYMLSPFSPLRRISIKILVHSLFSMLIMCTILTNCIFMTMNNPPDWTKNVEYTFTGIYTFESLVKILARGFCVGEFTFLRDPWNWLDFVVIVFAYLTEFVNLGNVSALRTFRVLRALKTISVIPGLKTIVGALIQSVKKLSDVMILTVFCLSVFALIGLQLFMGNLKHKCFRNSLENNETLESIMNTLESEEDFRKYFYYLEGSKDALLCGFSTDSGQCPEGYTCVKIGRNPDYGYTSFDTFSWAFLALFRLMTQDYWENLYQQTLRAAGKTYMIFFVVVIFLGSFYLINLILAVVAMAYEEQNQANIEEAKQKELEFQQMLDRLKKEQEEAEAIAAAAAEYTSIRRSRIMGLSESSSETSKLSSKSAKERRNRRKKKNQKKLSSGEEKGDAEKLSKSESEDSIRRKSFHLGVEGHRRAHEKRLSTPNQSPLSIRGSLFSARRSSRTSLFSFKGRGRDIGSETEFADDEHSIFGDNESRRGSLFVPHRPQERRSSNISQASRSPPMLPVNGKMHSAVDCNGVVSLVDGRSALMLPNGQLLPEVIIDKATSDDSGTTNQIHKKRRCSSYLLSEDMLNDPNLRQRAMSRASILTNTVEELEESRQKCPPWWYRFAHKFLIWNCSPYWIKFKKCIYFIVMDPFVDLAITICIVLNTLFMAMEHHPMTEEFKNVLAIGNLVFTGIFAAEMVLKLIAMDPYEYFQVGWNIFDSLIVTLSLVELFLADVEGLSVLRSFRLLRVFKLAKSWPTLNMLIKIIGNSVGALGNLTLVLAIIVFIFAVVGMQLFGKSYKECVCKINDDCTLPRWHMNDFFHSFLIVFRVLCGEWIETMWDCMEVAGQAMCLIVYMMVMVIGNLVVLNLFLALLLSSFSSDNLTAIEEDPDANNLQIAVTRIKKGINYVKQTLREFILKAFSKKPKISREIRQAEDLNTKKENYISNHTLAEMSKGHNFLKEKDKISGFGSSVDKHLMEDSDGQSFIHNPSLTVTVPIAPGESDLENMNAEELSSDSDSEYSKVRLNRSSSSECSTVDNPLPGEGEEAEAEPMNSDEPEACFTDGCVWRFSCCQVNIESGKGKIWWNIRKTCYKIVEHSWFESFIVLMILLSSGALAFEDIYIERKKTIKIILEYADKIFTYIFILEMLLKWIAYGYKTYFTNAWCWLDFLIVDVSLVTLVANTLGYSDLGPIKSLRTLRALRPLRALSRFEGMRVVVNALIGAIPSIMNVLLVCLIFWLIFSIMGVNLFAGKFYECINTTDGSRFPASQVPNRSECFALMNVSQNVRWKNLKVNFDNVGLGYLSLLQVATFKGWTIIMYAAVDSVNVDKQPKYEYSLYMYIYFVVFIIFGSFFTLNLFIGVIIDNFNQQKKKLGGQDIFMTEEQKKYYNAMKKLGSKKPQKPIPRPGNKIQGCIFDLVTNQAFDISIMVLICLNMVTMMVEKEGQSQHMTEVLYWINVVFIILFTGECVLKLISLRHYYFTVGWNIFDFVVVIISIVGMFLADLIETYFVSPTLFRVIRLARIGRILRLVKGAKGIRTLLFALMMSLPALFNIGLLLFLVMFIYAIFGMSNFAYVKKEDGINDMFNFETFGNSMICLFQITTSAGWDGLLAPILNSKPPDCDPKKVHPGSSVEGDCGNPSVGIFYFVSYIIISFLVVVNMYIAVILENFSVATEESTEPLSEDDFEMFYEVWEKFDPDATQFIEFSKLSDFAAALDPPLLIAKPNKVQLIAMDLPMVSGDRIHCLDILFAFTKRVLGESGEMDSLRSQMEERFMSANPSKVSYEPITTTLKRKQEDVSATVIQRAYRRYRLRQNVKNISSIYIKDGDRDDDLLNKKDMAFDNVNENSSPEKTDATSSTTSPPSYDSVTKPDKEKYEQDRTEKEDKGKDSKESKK
Sequence of hNav1.3 (Q9NY46 whole entry, looked up): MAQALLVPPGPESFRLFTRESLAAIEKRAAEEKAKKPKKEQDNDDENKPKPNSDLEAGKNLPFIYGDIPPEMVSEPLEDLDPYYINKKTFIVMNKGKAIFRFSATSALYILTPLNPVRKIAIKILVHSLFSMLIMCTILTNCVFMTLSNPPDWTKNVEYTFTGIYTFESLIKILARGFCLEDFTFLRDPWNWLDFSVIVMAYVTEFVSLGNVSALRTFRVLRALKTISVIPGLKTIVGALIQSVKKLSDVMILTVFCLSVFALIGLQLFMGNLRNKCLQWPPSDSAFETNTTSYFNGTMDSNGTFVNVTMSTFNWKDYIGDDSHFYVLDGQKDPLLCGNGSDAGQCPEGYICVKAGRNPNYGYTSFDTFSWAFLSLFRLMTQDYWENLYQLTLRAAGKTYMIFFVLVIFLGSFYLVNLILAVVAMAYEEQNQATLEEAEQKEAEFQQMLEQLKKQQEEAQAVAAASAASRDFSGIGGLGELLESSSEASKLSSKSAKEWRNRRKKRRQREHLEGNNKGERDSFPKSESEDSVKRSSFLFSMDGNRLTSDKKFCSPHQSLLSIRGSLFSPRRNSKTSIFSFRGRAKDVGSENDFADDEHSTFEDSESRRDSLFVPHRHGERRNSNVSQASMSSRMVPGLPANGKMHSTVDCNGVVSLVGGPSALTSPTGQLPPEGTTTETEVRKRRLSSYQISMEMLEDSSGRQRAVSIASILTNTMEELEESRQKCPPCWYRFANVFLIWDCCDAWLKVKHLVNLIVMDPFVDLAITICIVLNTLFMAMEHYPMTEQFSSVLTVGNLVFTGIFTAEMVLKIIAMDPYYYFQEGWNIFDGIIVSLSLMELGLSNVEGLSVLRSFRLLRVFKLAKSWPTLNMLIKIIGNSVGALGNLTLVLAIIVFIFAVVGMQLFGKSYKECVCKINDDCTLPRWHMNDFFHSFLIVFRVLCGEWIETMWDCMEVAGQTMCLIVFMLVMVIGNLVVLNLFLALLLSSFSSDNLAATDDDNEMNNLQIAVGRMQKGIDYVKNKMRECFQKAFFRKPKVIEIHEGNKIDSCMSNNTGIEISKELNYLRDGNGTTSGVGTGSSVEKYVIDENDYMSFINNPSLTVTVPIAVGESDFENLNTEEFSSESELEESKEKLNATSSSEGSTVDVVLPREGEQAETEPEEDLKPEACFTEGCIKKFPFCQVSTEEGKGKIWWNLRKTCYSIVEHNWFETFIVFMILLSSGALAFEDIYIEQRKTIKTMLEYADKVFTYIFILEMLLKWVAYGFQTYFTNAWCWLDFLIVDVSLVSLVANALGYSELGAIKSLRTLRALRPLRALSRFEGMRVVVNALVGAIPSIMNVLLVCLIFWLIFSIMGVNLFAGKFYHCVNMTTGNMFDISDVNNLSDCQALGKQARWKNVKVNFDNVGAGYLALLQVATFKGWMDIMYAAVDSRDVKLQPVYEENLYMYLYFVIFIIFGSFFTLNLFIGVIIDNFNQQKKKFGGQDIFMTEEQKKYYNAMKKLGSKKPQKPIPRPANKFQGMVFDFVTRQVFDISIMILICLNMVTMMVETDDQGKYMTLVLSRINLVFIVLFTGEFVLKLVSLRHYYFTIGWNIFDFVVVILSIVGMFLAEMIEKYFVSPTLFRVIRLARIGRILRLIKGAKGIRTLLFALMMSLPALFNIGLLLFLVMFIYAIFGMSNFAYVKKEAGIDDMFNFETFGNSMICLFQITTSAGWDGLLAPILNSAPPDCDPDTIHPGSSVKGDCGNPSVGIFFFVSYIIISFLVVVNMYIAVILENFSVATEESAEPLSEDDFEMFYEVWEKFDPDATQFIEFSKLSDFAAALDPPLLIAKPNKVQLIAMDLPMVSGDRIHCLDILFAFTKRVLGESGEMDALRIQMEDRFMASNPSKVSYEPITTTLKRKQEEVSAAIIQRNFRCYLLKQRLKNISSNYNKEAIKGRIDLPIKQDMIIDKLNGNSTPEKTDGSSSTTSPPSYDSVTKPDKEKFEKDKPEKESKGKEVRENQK

Take `CC[C@H](C)[C@@H]1NC(=O)[C@@H]2CSSC[C@@H]3NC(=O)[C@H](C(C)C)NC(=O)[C@H](Cc4ccc(C(=O)O)cc4)NC(=O)[C@H](CC(N)=O)NC(=O)[C@@H]4CCCN4C(=O)[C@H](CCCNC(=N)N)NC(=O)[C@H](CSSC[C@H](NC(=O)[C@@H](N)CC(=O)O)C(=O)N[C@@H](CC(C)C)C(=O)NCC(=O)N[C@@H](Cc4ccccc4)C(=O)N[C@@H](CCSC)C(=O)N[C@@H](CCCNC(=N)N)C(=O)N[C@@H](CCCCN)C(=O)N2)NC(=O)[C@H](CSSC[C@@H](C(=O)N[C@@H](CCCCN)C(=O)N[C@@H](Cc2ccc(O)cc2)C(=O)N[C@H](C(=O)N[C@@H](Cc2ccccc2)C(N)=O)C(C)C)NC(=O)[C@H](Cc2c[nH]c4ccccc24)NC(=O)[C@H](CCCCN)NC(=O)[C@H](Cc2c[nH]cn2)NC(=O)[C@H]([C@@H](C)O)NC(=O)[C@H](CCCNC(=N)N)NC(=O)[C@H](CO)NC3=O)NC(=O)[C@H](CCCCN)NC(=O)[C@H](CC(=O)O)NC(=O)[C@H](CC(N)=O)NC(=O)[C@H](CC(=O)O)NC(=O)[C@@H]2CCCN2C1=O` [compound 317] (H-DCLGFMRKCIPDNDKCCRPN[Phe(4-COOH)]VCSRTHKWCKYVF-NH2; disulfide 2-17, 9-23, 16-30): the pIC50 in assay [1] was 5.40; in assay [2] it was 5.05; in assay [3], 5.44.
As to `CC[C@H](C)[C@@H]1NC(=O)[C@@H]2CSSC[C@@H]3NC(=O)[C@H](C(C)C)NC(=O)[C@H](Cc4ccccn4)NC(=O)[C@H](CC(N)=O)NC(=O)[C@@H]4CCCN4C(=O)[C@H](CCCNC(=N)N)NC(=O)[C@H](CSSC[C@H](NC(=O)[C@@H](N)CC(=O)O)C(=O)N[C@@H](CC(C)C)C(=O)NCC(=O)N[C@@H](Cc4ccccc4)C(=O)N[C@@H](CCSC)C(=O)N[C@@H](CCCNC(=N)N)C(=O)N[C@@H](CCCCN)C(=O)N2)NC(=O)[C@H](CSSC[C@@H](C(=O)N[C@@H](CCCCN)C(=O)N[C@@H](Cc2ccc(O)cc2)C(=O)N[C@H](C(=O)N[C@@H](Cc2ccccc2)C(N)=O)C(C)C)NC(=O)[C@H](Cc2c[nH]c4ccccc24)NC(=O)[C@H](CCCCN)NC(=O)[C@H](Cc2c[nH]cn2)NC(=O)[C@H]([C@@H](C)O)NC(=O)[C@H](CCCNC(=N)N)NC(=O)[C@H](CO)NC3=O)NC(=O)[C@H](CCCCN)NC(=O)[C@H](CC(=O)O)NC(=O)[C@H](CC(N)=O)NC(=O)[C@H](CC(=O)O)NC(=O)[C@@H]2CCCN2C1=O` [compound 318] (H-DCLGFMRKCIPDNDKCCRPN[2Pal]VCSRTHKWCKYVF-NH2; disulfide 2-17, 9-23, 16-30), the pIC50 was 6.74 in assay [1], 5.12 in assay [2] and 7.10 in assay [3].
As for `CC[C@H](C)[C@@H]1NC(=O)[C@@H]2CSSC[C@@H]3NC(=O)[C@H](Cc4ccccc4)NC(=O)[C@H](CC(C)C)NC(=O)[C@H](CC(N)=O)NC(=O)[C@@H]4CCCN4C(=O)[C@H](CCCNC(=N)N)NC(=O)[C@H](CSSC[C@H](NC(=O)[C@@H](N)CC(=O)O)C(=O)N[C@@H](CC(C)C)C(=O)NCC(=O)N[C@@H](Cc4ccccc4)C(=O)N[C@@H](CCSC)C(=O)N[C@@H](CCCNC(=N)N)C(=O)N[C@@H](CCCCN)C(=O)N2)NC(=O)[C@H](CSSC[C@@H](C(=O)N[C@@H](CCCCN)C(=O)N[C@@H](Cc2ccc(O)cc2)C(=O)N[C@H](C(=O)N[C@@H](Cc2ccccc2)C(N)=O)C(C)C)NC(=O)[C@H](Cc2c[nH]c4ccccc24)NC(=O)[C@H](CCCCN)NC(=O)[C@H](Cc2c[nH]cn2)NC(=O)[C@H]([C@@H](C)O)NC(=O)[C@H](CCCNC(=N)N)NC(=O)[C@H](CO)NC3=O)NC(=O)[C@H](CCCCN)NC(=O)[C@H](CC(=O)O)NC(=O)[C@H](CC(N)=O)NC(=O)[C@H](CC(=O)O)NC(=O)[C@@H]2CCCN2C1=O` [compound 319] (H-DCLGFMRKCIPDNDKCCRPNLFCSRTHKWCKYVF-NH2; disulfide 2-17, 9-23, 16-30), the pIC50 in assay [1] was 6.15; in assay [3] it was 5.99. In assay [2] (IWQ Use Nav1.5 (μM)), this molecule displayed an IC50 of over 5 µM.
For `CC[C@H](C)[C@@H]1NC(=O)[C@@H]2CSSC[C@@H]3NC(=O)[C@@H]4CCCN4C(=O)[C@H](CC(C)C)NC(=O)[C@H](CC(N)=O)NC(=O)[C@@H]4CCCN4C(=O)[C@H](CCCNC(=N)N)NC(=O)[C@H](CSSC[C@H](NC(=O)[C@@H](N)CC(=O)O)C(=O)N[C@@H](CC(C)C)C(=O)NCC(=O)N[C@@H](Cc4ccccc4)C(=O)N[C@@H](CCSC)C(=O)N[C@@H](CCCNC(=N)N)C(=O)N[C@@H](CCCCN)C(=O)N2)NC(=O)[C@H](CSSC[C@@H](C(=O)N[C@@H](CCCCN)C(=O)N[C@@H](Cc2ccc(O)cc2)C(=O)N[C@H](C(=O)N[C@@H](Cc2ccccc2)C(N)=O)C(C)C)NC(=O)[C@H](Cc2c[nH]c4ccccc24)NC(=O)[C@H](CCCCN)NC(=O)[C@H](Cc2c[nH]cn2)NC(=O)[C@H]([C@@H](C)O)NC(=O)[C@H](CCCNC(=N)N)NC(=O)[C@H](CO)NC3=O)NC(=O)[C@H](CCCCN)NC(=O)[C@H](CC(=O)O)NC(=O)[C@H](CC(N)=O)NC(=O)[C@H](CC(=O)O)NC(=O)[C@@H]2CCCN2C1=O` [compound 320] (H-DCLGFMRKCIPDNDKCCRPNLPCSRTHKWCKYVF-NH2; disulfide 2-17, 9-23, 16-30), the pIC50 in assay [1], in assay [2] and in assay [3] was under 5.30 each time.
For the molecule `CC[C@H](C)[C@@H]1NC(=O)[C@H](CC(C)C)NC(=O)[C@H](CC(N)=O)NC(=O)[C@@H]2CCCN2C(=O)[C@H](CCCNC(=N)N)NC(=O)[C@@H]2CSSC[C@H](NC(=O)[C@@H](N)CC(=O)O)C(=O)N[C@@H](CC(C)C)C(=O)NCC(=O)N[C@@H](Cc3ccccc3)C(=O)N[C@@H](CCSC)C(=O)N[C@@H](CCCNC(=N)N)C(=O)N[C@@H](CCCCN)C(=O)N[C@H]3CSSC[C@H](NC1=O)C(=O)N[C@@H](CO)C(=O)N[C@@H](CCCNC(=N)N)C(=O)N[C@@H]([C@@H](C)O)C(=O)N[C@@H](Cc1c[nH]cn1)C(=O)N[C@@H](CCCCN)C(=O)N[C@@H](Cc1c[nH]c4ccccc14)C(=O)N[C@H](C(=O)N[C@@H](CCCCN)C(=O)N[C@@H](Cc1ccc(O)cc1)C(=O)N[C@H](C(=O)N[C@@H](Cc1ccccc1)C(N)=O)C(C)C)CSSC[C@H](NC(=O)[C@H](CCCCN)NC(=O)[C@H](CC(=O)O)NC(=O)[C@H](CC(N)=O)NC(=O)[C@H](CC(=O)O)NC(=O)[C@@H]1CCCN1C(=O)[C@H]([C@@H](C)CC)NC3=O)C(=O)N2` [compound 321] (H-DCLGFMRKCIPDNDKCCRPNLICSRTHKWCKYVF-NH2; disulfide 2-17, 9-23, 16-30), the pIC50 in assay [1] is 7.10; in assay [2], 4.94; in assay [3], 7.15.
For the molecule `CC[C@H](C)[C@@H]1NC(=O)[C@@H]2CSSC[C@@H]3NC(=O)[C@H](CC(C)C)NC(=O)[C@H](CC(C)C)NC(=O)[C@H](CC(N)=O)NC(=O)[C@@H]4CCCN4C(=O)[C@H](CCCNC(=N)N)NC(=O)[C@H](CSSC[C@H](NC(=O)[C@@H](N)CC(=O)O)C(=O)N[C@@H](CC(C)C)C(=O)NCC(=O)N[C@@H](Cc4ccccc4)C(=O)N[C@@H](CCSC)C(=O)N[C@@H](CCCNC(=N)N)C(=O)N[C@@H](CCCCN)C(=O)N2)NC(=O)[C@H](CSSC[C@@H](C(=O)N[C@@H](CCCCN)C(=O)N[C@@H](Cc2ccc(O)cc2)C(=O)N[C@H](C(=O)N[C@@H](Cc2ccccc2)C(N)=O)C(C)C)NC(=O)[C@H](Cc2c[nH]c4ccccc24)NC(=O)[C@H](CCCCN)NC(=O)[C@H](Cc2c[nH]cn2)NC(=O)[C@H]([C@@H](C)O)NC(=O)[C@H](CCCNC(=N)N)NC(=O)[C@H](CO)NC3=O)NC(=O)[C@H](CCCCN)NC(=O)[C@H](CC(=O)O)NC(=O)[C@H](CC(N)=O)NC(=O)[C@H](CC(=O)O)NC(=O)[C@@H]2CCCN2C1=O` [compound 322] (H-DCLGFMRKCIPDNDKCCRPNLLCSRTHKWCKYVF-NH2; disulfide 2-17, 9-23, 16-30), the pIC50 was 7.05 in assay [1], 5.02 in assay [2] and 7.15 in assay [3].
Consider `CC[C@H](C)[C@@H]1NC(=O)[C@@H]2CSSC[C@@H]3NC(=O)[C@H](CO)NC(=O)[C@H](CC(C)C)NC(=O)[C@H](CC(N)=O)NC(=O)[C@@H]4CCCN4C(=O)[C@H](CCCNC(=N)N)NC(=O)[C@H](CSSC[C@H](NC(=O)[C@@H](N)CC(=O)O)C(=O)N[C@@H](CC(C)C)C(=O)NCC(=O)N[C@@H](Cc4ccccc4)C(=O)N[C@@H](CCSC)C(=O)N[C@@H](CCCNC(=N)N)C(=O)N[C@@H](CCCCN)C(=O)N2)NC(=O)[C@H](CSSC[C@@H](C(=O)N[C@@H](CCCCN)C(=O)N[C@@H](Cc2ccc(O)cc2)C(=O)N[C@H](C(=O)N[C@@H](Cc2ccccc2)C(N)=O)C(C)C)NC(=O)[C@H](Cc2c[nH]c4ccccc24)NC(=O)[C@H](CCCCN)NC(=O)[C@H](Cc2c[nH]cn2)NC(=O)[C@H]([C@@H](C)O)NC(=O)[C@H](CCCNC(=N)N)NC(=O)[C@H](CO)NC3=O)NC(=O)[C@H](CCCCN)NC(=O)[C@H](CC(=O)O)NC(=O)[C@H](CC(N)=O)NC(=O)[C@H](CC(=O)O)NC(=O)[C@@H]2CCCN2C1=O` [compound 323] (H-DCLGFMRKCIPDNDKCCRPNLSCSRTHKWCKYVF-NH2; disulfide 2-17, 9-23, 16-30), for which the pIC50 in assay [1] is 7.00; in assay [2], 5.35; in assay [3] it was 7.05.
Regarding `CC[C@H](C)[C@@H]1NC(=O)[C@@H]2CSSC[C@@H]3NC(=O)CNC(=O)[C@H](CC(C)C)NC(=O)[C@H](CC(N)=O)NC(=O)[C@@H]4CCCN4C(=O)[C@H](CCCNC(=N)N)NC(=O)[C@H](CSSC[C@H](NC(=O)[C@@H](N)CC(=O)O)C(=O)N[C@@H](CC(C)C)C(=O)NCC(=O)N[C@@H](Cc4ccccc4)C(=O)N[C@@H](CCSC)C(=O)N[C@@H](CCCNC(=N)N)C(=O)N[C@@H](CCCCN)C(=O)N2)NC(=O)[C@H](CSSC[C@@H](C(=O)N[C@@H](CCCCN)C(=O)N[C@@H](Cc2ccc(O)cc2)C(=O)N[C@H](C(=O)N[C@@H](Cc2ccccc2)C(N)=O)C(C)C)NC(=O)[C@H](Cc2c[nH]c4ccccc24)NC(=O)[C@H](CCCCN)NC(=O)[C@H](Cc2c[nH]cn2)NC(=O)[C@H]([C@@H](C)O)NC(=O)[C@H](CCCNC(=N)N)NC(=O)[C@H](CO)NC3=O)NC(=O)[C@H](CCCCN)NC(=O)[C@H](CC(=O)O)NC(=O)[C@H](CC(N)=O)NC(=O)[C@H](CC(=O)O)NC(=O)[C@@H]2CCCN2C1=O` [compound 324] (H-DCLGFMRKCIPDNDKCCRPNLGCSRTHKWCKYVF-NH2; disulfide 2-17, 9-23, 16-30), the pIC50 in assay [1] is 6.85; in assay [2], 4.96; in assay [3] it was 7.00.

For the origin of these results see patent publication US9340590B2 (priority 2011, dated 2016).
